Measured values published in ChEMBL document CHEMBL1201862, “PubChem BioAssay data set” (2004).
Calls of active or inactive are those of the source.

Key:
[1] = THP-1 cell cytotoxicity, dose response, cytotoxicity control for non-replicating M. tuberculosis project (AID 489025); assay type: functional
cells = assay type: functional
[2] = HepG2 cell cytotoxicity, dose response, cytotoxicity control for non-replicating M. tuberculosis project (AID 489018); assay type: functional; conditions: Mycobacterium tuberculosis
Streptococcus = assay: GAS UMAA2166 growth inhibition – luminescence, BacTiterGlo, counter-screen for streptokinase expression inhibitor project, dose response (AID 1915); assay type: functional, organism-based; conditions: read-out: EC50;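 further: potency for reduction of bacterial viability or growth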
[3] = Vero E6 cell cytotoxicity, dose response, cytotoxicity control for non-replicating M. tuberculosis project, secondary assay (AID 492998); assay type: functional, VeroE6; conditions: Vero C1008
[4] = tested on: Streptococcus sp. 'group A'; assay: Streptococcus pyogenes SK(-)GAS viability under kanamycin – luminescence, BacTiterGlo, confirmation, counter-screen for streptokinase expression inhibitor project, dose response (AID 1900); assay type: functional, organism-based
Streptokinase A = biological target: T1, Streptokinase A (Streptococcus pyogenes serotype M1, UniProt P10520); assay: viability-normalized secreted streptokinase activity reduction – plasminogen activation absorbance, OD405, dose response (AID 1914); assay type: functional, Streptococcus pyogenes M1 GAS;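 further: secreted streptokinase activity via plasminogen activation per viability signal from cell pellet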
T1 sequence (P10520 whole entry): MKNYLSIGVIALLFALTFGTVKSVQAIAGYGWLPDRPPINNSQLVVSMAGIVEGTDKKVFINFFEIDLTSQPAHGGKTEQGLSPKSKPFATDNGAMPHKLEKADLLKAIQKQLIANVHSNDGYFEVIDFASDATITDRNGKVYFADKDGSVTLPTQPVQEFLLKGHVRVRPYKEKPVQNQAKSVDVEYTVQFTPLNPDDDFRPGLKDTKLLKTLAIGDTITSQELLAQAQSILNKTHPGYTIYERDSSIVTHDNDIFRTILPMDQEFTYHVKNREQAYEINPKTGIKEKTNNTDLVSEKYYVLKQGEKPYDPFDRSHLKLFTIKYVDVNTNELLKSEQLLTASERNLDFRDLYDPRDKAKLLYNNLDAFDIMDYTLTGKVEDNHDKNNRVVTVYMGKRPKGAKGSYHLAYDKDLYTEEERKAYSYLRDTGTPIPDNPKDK

[5] = biological target: Neurotensin receptor type 1 (Homo sapiens, UniProt P30989); assay type: functional;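 further: Image-based confirmatory dose-response assay measuring agonist activity at NTR1; NTR1-expressing U2OS osteosarcoma cells imaged for beta-arrestin GFP spot formation; agonist potency where compounds increase beta-arrestin recruitment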
Chain of Neurotensin receptor type 1 (P30989 whole entry): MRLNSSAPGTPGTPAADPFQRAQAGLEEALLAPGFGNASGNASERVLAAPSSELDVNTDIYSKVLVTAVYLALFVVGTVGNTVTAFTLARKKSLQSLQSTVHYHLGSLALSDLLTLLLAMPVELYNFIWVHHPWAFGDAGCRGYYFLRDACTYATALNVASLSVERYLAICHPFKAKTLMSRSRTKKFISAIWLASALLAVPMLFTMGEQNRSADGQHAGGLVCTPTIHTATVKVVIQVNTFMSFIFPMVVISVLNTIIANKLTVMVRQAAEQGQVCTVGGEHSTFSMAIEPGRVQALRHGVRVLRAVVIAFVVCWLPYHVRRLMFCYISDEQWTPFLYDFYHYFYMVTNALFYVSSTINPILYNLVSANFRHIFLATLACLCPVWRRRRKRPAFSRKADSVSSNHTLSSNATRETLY

[6] = viability loss in THP-1 monocytes – THP-1 cells, cytotoxicity control for Vif-APOBEC3G degradation inhibitor project, dose response (AID 1117359); assay type: functional; conditions: THP-1
[7] = biological target: T2, Microphthalmia-associated transcription factor (Homo sapiens, UniProt O75030); assay: reducers of TRPM1 reporter luminescence, concentration series – cell-based, SK-MEL-5, cherry-picked, set 3, MITF inhibitor project, dose response (AID 493073); assay type: functional;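 further: SK-MEL-5 melanoma cells with luciferase driven by the MITF target TRPM1 promoter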
T2 sequence (O75030 whole entry): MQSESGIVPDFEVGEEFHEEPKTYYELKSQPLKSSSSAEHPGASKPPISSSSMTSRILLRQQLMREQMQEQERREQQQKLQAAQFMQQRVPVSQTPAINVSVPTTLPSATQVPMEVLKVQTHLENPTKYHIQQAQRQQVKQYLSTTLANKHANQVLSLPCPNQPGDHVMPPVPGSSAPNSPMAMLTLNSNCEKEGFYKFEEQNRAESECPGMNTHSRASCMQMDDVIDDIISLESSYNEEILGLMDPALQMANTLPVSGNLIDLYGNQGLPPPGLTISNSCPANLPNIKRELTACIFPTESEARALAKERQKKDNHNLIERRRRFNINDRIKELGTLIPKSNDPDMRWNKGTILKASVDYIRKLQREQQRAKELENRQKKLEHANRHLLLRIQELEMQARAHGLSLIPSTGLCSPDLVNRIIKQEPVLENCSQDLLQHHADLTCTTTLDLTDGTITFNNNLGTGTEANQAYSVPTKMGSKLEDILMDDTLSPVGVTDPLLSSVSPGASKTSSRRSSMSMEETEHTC

Hexokinase HKDC1 = biological target: T3, Hexokinase HKDC1 (Homo sapiens, UniProt Q2TB90); assay: inhibition of HKDC1 glucose phosphorylation – biochemical, W721R variant, dose response (AID 504729); assay type: functional
T3 sequence (Q2TB90 whole entry): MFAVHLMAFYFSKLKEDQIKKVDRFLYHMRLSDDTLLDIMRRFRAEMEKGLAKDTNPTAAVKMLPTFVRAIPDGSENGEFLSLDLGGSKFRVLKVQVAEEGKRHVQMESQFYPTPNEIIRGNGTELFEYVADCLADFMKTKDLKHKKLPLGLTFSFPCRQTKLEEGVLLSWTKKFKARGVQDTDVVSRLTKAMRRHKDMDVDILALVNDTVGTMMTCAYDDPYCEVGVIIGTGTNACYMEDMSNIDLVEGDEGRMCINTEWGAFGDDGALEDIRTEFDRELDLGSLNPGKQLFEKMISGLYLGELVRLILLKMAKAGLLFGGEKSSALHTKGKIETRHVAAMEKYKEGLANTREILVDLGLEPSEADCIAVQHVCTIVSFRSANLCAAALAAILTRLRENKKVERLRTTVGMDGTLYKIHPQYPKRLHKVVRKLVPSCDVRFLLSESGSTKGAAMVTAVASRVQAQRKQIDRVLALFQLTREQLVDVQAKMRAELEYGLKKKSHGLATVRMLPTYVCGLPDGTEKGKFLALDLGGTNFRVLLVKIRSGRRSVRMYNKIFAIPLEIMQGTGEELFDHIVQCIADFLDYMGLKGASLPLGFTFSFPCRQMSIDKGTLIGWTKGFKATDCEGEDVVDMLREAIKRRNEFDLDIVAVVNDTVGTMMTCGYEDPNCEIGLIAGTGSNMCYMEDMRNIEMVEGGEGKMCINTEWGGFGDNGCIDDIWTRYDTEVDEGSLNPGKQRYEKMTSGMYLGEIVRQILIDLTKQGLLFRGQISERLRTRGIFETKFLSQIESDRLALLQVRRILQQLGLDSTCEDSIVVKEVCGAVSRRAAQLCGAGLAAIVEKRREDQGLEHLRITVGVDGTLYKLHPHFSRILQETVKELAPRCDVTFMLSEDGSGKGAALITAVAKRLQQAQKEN

[8] = biological target: Luciferin 4-monooxygenase (Photinus pyralis, UniProt P08659); assay: inhibition of purified Photinus pyralis luciferase – biochemical, luminescence, dose response (AID 1891)
Chain of Luciferin 4-monooxygenase (P08659 whole entry): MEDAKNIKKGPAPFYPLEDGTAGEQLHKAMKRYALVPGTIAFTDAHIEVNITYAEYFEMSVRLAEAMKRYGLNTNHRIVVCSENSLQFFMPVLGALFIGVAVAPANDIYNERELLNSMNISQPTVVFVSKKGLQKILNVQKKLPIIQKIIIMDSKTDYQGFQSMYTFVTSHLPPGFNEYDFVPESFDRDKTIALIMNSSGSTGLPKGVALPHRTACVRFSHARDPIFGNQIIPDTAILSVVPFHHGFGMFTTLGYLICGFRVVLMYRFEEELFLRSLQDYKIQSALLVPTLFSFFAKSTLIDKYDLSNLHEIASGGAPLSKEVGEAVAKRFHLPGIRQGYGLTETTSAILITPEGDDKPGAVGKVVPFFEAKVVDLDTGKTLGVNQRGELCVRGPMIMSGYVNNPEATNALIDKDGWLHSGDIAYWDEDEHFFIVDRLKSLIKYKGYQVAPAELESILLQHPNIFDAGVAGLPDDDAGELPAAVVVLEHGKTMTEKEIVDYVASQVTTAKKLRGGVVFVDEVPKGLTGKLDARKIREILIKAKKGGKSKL

[9] = Luminescence Cell-Based Dose Confirmation HTS to Identify Inhibitors of Platelet Dense Granule Release. [Related pubchem assays: 1663 (Primary HTS), 1678 (Summary of Project)]; assay type: functional
[10] = biological target: C-C chemokine receptor type 6 (Homo sapiens, UniProt P51684); assay: antagonism of CCR6 beta-arrestin recruitment – cell-based, luminescent beta-arrestin readout, dose response (AID 504728); assay type: functional
Chain of C-C chemokine receptor type 6 (P51684 whole entry): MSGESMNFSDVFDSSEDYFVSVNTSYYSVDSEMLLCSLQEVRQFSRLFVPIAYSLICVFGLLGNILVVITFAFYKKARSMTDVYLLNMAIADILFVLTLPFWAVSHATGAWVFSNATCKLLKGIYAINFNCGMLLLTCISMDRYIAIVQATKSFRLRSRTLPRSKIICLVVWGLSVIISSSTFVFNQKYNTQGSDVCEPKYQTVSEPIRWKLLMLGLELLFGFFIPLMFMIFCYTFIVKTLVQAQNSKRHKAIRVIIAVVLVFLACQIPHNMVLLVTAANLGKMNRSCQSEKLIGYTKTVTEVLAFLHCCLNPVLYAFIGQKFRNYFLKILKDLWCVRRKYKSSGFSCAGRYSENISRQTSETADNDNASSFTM

Genome polyprotein = Genome polyprotein (dengue virus type 2, UniProt P29990); assay: flavivirus cap methylation enzyme inhibition – biochemical, confirmation dose response, primary screen (AID 588689); assay type: functional
Chain of Genome polyprotein (P29990 2492-3391 limits assumed): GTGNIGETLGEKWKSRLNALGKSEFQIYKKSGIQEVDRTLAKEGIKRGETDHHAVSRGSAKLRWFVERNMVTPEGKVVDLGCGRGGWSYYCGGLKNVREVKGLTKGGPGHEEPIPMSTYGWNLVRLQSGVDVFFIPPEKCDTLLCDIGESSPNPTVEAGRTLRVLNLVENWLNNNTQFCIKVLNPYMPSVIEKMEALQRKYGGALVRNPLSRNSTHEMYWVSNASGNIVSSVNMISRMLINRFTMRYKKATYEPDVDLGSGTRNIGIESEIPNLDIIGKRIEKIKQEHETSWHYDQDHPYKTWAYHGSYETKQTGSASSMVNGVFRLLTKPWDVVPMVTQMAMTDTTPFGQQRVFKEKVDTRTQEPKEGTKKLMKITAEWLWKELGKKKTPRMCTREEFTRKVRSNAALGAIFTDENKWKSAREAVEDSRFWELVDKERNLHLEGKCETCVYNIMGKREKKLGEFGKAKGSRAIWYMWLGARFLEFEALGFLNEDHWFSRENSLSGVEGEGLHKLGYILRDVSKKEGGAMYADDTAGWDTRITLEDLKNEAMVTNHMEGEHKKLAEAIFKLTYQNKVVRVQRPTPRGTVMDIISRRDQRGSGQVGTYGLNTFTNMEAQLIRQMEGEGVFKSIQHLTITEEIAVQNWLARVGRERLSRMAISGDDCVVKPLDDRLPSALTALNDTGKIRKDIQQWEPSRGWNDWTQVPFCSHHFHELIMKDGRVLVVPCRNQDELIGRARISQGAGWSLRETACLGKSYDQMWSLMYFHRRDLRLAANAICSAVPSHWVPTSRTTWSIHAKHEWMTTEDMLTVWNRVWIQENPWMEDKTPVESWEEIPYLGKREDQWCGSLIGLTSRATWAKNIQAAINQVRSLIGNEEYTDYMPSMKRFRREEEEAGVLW

Beta-galactosidase = Beta-galactosidase (Escherichia coli, UniProt Q8VNN2); assay: detection-enzyme interference by beta-gal modulators – biochemical, E. coli enzyme, set 3, artefact control for CCR6 antagonist project, dose response (AID 504712); assay type: functional
Chain of Beta-galactosidase (Q8VNN2 whole entry): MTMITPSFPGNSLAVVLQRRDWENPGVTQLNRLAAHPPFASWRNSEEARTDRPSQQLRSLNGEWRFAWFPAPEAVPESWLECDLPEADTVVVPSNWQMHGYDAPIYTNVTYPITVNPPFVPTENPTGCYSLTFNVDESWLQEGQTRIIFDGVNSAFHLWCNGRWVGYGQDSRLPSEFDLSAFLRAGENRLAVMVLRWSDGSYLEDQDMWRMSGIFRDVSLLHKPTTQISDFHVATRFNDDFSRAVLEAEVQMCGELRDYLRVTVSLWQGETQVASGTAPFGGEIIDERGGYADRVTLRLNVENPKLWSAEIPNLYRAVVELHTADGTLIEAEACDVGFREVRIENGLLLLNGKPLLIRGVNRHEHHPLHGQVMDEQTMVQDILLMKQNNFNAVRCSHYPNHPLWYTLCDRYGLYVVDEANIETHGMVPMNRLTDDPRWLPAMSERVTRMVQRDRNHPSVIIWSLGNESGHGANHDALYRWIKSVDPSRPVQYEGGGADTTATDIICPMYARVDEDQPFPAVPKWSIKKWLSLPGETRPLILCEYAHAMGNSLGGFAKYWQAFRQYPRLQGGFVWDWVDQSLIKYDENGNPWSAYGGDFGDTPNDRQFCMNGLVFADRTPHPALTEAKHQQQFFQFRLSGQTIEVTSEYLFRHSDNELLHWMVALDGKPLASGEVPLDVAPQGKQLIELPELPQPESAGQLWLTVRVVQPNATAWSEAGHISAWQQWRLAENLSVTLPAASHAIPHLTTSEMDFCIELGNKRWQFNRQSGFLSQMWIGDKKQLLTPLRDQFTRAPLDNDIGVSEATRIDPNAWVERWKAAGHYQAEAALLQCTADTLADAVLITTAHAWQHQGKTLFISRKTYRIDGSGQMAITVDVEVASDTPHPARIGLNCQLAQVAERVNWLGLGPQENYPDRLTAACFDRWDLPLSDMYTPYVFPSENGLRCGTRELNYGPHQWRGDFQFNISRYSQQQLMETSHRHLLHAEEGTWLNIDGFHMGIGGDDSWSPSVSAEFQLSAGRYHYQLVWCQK

Nonstructural protein 1 = Nonstructural protein 1 (Influenza A virus, UniProt Q194T2); assay type: functional, Influenza A virus (A/California/07/2009(H1N1))
Chain of Nonstructural protein 1 (Q194T2 whole entry): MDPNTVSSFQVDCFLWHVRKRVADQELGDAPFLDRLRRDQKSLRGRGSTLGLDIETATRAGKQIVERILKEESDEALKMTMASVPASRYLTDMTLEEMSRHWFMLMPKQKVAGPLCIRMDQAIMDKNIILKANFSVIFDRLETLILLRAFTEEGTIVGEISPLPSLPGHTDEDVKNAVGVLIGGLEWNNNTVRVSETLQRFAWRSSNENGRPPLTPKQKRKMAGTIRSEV

Vero [11] = assay: viability of Vero cells under compound – cytotoxicity control for flavivirus capping enzyme inhibitors (AID 588742); assay type: functional; conditions: Chlorocebus sabaeus
Vero [12] = assay: cells; assay type: functional; conditions: Chlorocebus sabaeus
[13] = biological target: Heat shock protein HSP 90-alpha (Homo sapiens, UniProt P07900); assay type: functional, organism-based
[14] = biological target: T4, Eukaryotic translation initiation factor 2-alpha kinase 3 (Homo sapiens, UniProt Q9NZJ5); assay: Dose response cell-based high-throughput screening assay to measure PERK inhibition. [Related pubchem assays: 1416 ]; assay type: functional
T4 sequence (Q9NZJ5 whole entry): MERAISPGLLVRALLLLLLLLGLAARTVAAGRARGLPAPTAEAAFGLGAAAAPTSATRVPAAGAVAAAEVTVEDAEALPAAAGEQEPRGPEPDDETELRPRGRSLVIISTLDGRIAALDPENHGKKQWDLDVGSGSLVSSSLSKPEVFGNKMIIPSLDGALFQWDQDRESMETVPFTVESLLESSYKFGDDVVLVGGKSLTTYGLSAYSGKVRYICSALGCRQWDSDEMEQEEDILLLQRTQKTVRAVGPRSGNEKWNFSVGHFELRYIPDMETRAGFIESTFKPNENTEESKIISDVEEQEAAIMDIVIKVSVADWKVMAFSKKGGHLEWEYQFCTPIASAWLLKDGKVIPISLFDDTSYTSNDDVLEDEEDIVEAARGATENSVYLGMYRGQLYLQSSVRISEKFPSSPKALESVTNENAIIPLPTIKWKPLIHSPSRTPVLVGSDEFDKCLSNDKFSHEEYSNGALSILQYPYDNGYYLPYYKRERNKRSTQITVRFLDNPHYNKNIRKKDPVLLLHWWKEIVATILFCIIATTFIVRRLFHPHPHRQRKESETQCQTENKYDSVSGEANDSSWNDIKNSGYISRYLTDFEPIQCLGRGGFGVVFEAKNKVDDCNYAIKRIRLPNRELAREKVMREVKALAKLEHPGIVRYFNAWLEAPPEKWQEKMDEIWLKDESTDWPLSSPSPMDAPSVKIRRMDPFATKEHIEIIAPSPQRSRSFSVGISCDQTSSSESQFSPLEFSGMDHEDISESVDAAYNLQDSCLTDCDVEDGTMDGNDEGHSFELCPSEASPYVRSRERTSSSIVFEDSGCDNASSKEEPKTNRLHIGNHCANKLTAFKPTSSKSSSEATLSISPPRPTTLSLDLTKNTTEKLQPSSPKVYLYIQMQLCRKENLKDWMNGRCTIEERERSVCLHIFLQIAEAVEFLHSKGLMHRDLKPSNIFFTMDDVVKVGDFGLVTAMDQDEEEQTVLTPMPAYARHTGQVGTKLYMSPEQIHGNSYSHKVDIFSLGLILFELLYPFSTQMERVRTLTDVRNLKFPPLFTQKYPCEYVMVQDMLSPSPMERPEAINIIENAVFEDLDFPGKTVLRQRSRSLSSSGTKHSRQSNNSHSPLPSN

[15] = biological target: T4, Eukaryotic translation initiation factor 2-alpha kinase 3; assay: Counterscreen assay for PERK inhibitors: Dose response cell-based high throughput screening assay to measure inhibition of PERK at 6 hours. [Related pubchem assays: 1522, 1416 ]; assay type: functional
[16] = biological target: Melanin-concentrating hormone receptor 1 (Homo sapiens, UniProt Q99705); assay: Late-stage fluorescence-based counterscreen for antagonists of the G-protein coupled receptor 7 (GPR7): cell-based dose response assay to identify antagonists of the melanin-concentrating hormone receptor 1 (MCHR1). [Related pubchem assays (depositor defined):AID1861, AID1880, AID1952, AID2148, AID2251, AID2257, AID485339]; assay type: functional;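 further: stimulated with 30 nM MCH peptide agonist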
Chain of Melanin-concentrating hormone receptor 1 (Q99705 whole entry): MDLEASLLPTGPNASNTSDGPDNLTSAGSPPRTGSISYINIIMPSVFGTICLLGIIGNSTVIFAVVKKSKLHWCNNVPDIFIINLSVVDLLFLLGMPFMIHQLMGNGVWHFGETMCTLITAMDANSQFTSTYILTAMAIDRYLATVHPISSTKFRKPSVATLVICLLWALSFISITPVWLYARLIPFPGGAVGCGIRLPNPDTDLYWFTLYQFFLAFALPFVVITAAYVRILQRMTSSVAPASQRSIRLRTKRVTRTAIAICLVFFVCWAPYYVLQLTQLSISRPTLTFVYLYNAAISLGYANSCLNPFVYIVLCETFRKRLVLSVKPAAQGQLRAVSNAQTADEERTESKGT

Bcl-2-like protein 10 = Bcl-2-like protein 10 (Homo sapiens, UniProt Q9HD36); assay: Bcl-B/TR3 peptide binding disruption – biochemical, fluorescence polarization, FITC-TR3 peptide, selectivity assay for Bfl-1 inhibitor project, primary screen (AID 748);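 further: fluorescence polarization from a fluorescein-labelled TR3 peptide binding purified Bcl-B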
Chain of Bcl-2-like protein 10 (Q9HD36 whole entry): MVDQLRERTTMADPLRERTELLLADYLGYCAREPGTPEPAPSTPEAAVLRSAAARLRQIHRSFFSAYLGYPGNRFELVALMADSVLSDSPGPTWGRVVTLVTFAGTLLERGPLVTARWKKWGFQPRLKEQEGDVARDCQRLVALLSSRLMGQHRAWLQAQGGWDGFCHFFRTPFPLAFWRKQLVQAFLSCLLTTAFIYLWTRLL

## O=c1c2cc(Cl)ccc2nc(-c2ccc(Cl)c(Cl)c2)n1O
[1]
  CC50: 14.2 µM (active)
cells
  IC50: 4.14 µM (active)
[2]
  CC50: > 20 µM (active)
Streptococcus
  EC50: 0.949 µM (active)
[3]
  CC50: 10.9 µM (active)
[4]
  EC50: 0.402 µM (active)

## CN1C(=O)/C(=C/c2cccn2-c2ccc3ccccc3c2)C(=O)NC1=S
Streptokinase A
  EC50: 4.97 µM (active)
Streptococcus
  EC50: > 50 µM (not active)
[5]
  EC50: 12.1 µM (active)
[6]
  CC50: 14.5 µM (active)
[4]
  EC50: 5.56 µM (active)
[7]
  AC50: 9.42 µM (active)

## CC(C)c1nc2oc3c(NCC4CCCO4)ncnc3c2c2c1COC(C)(C)C2 (stereo unspecified)
Hexokinase HKDC1
  IC50: 3.81 µM (active)
[8]
  EC50: > 112 µM (not active)
[9]
  EC50: > 112 µM (not active)

## Nc1c(S(=O)(=O)O)cc(NC(=O)c2ccccc2)c2c1C(=O)c1ccccc1C2=O
[10]
  IC50: 26.9 µM (inactive)
Genome polyprotein
  IC50: 34.3 µM (active)
Beta-galactosidase
  IC50: > 66.6 µM (inactive)
Nonstructural protein 1
  IC50: 13.3 µM (active)
Vero [11]
  CC50: > 40 µM (active)

## COc1cccc(/C=C2/CCC(CN(C)C)C2=O)c1 (stereo unspecified)
Vero [12]
  CC50: 22.4 µM (active)
[10]
  IC50: 32.3 µM (inactive)
Beta-galactosidase
  IC50: > 66.6 µM (inactive)
[13]
  AC50: 4.55 µM (active)

## CCCCc1c(C)nc2c(OC)cccc2c1SCC(=O)O
[14]
  EC50: > 55.7 µM (not active)
[15]
  EC50: > 55.7 µM (not active)

## COc1ccc(Oc2c(C=O)cnn(-c3ccc(C(C)C)cc3)c2=O)cc1
[16]
  IC50: 4.8 µM (active)

## CC(=O)n1cc(C(C[N+](=O)[O-])SCCN)c2ccccc21 (stereo unspecified)
[5]
  EC50: 14.2 µM (active)

## COc1ccc(N2C(=O)c3cccc4cccc(c34)C2=O)nn1
Bcl-2-like protein 10
  IC50: > 50 µM (inactive)

## Cc1csc2nc(CNC(=O)CCC(=O)O)cn12
[14]
  EC50: > 55.7 µM (not active)
[15]
  EC50: > 55.7 µM (not active)
